Test results from US12187672B2, “1,2-diacylglycerol compound, preparation method therefor, and immunomodulator containing same as active ingredient” (ENZYCHEM LIFESCIENCES CORPORATION, priority 2018, dated 2025).

Key:
STAT3 = assay: IL-6-induced STAT3 activity, SEAP expression in HEK-Blue IL-6 cells; type: cell-based; conditions: for STAT3 activity_SEAP expression(%) (average ± deviation) / decrease of STAT3 activity compared to the IL-6 cytokine-treated group: HEK-Blue IL-6 cells; for STAT3 activity_SEAP expression(%) (average ± deviation): negative control = 100; for decrease of STAT3 activity compared to the IL-6 cytokine-treated group: 100 μg/ml
Description: HEK-Blue™ IL-6 cells were used to confirm STAT3 activity by STAT3-induced SEAP (secreted embryonic alkaline phosphatase) expression. In DMEM (Hyclone, Thermo Scientific) medium to which 10% Fetal Bovine Serum was added, HEK-Blue™ IL-6 cells were cultured at a concentration of 1×10^5 cells/ml, and maintained in a 5% CO2 humidified incubator at 37° C. The cultured HEK-Blue™ IL-6 cells were inoculated by 1×10^5 cells/ml. Then, the culture solution was treated with a glycerol derivative compounds of the type shown in Table 4 below for 1 hour and then IL-6 (5 ng/ml) was further incubated for 24 hours for STAT3 activity. Thereafter, the culture supernatant was collected for each well and centrifuged (at 3000 rpm, 5 minutes) to recover the supernatant. The SEAP expression level in the recovered supernatant was mixed with Quanti blue reagent and the supernatant at a ratio of 1:10 and left at 37° C. for about 30 minutes. Then, the SEAP concentration was confirmed at 650 nm wavelength using a spectrophotometer, and the results (STAT3 activity inhibitory ability) thereof are shown in Table 4 and FIG. 3 below.

IL-6 = assay: LPS-induced IL-6 secretion reduction in RAW264.7 cells (ELISA); type: cell-based, mouse; conditions: sample 100 μg/ml 1 h, then LPS 1 μg/ml 24 h, Table 2
Description: In DMEM (Dulbecco Modified Eagle Medium, Hyclone, Thermo Scientific) medium to which 10% Fetal Bovine Serum was added, RAW264.7 cells, a mouse macrophage family, were suspended at a concentration of 1×10^5 cells/ml, and culture was conducted in a 5% CO2 humidified incubator at 37° C. The cultured RAW264.7 cells were inoculated into a 48 well plate by 5×10^4 cells/ml and stabilized for 15 hours. Then, the culture solution was treated with a glycerol derivative compounds of the type shown in Table 2 and 3 below for 1 hour and then was treated with 1 μg/ml of Lipopolysaccaride (LPS) of a cell stimulator, and subsequent further incubation was conducted for 24 hours. Thereafter 0.5 ml of the culture supernatant was collected for each well and centrifuged (at 3000 rpm, 5 minutes) to recover the supernatant. The IL-6 level in the recovered supernatant was measured according to the manual provided by the Mouse IL-6 ELISA set (BD Biosciences). The day before ELISA was carried out, the IL-6 capture antibody was diluted in phosphate buffered saline, coated on a microwell, and then stored at 4° C. overnight. Each well was washed three times with a buffer solution and then blocked with 2% Bovine Serum Albumin (BSA) for 1 hour at room temperature. After washing with buffer solution three times, […] of sample was dispensed into each well and left at room temperature for 2 hours. Detection antibody which was washed 3 times with washing buffer solution and diluted was dispensed into each well and allowed to react at room temperature for 1 hour and left at room temperature for 1 hour. Thereafter, the secondary HRP conjugated antibody was reacted at room temperature for 30 minutes, washed three times with a buffer solution, and treated with 50 μl of stop solution for each well, and then the optical density was measured at 450 nm with an ELISA microplate leader. The results of the IL-6 expression reduction rate (IL-6 concentration) are shown in Table 2, Table 3, FIG. 1 and FIG. 2 below.

CXCL8 (IL-8) = CXCL8 (IL-8) expression reduction in Gemcitabine-treated THP-1 cells (ELISA); type: cell-based, human; conditions: THP-1 cells; for CXCL8 [IL-8] concentration (average ± deviation): sample 100 μg/ml 1 h, then Gemcitabine 2 μg/ml 24 h
Description: In RPMI (Hyclone, Thermo Scientific) medium to which 10% Fetal Bovine Serum was added, THP-1 cells, a human macrophage family, were suspended at a concentration of 1×10^5 cells/ml, and culture was conducted in a 5% CO2 humidified incubator at 37° C. The cultured THP-1 cells were inoculated into a 12 well plate by 1×10^6 cells/ml and stabilized for 30 minutes. Then, the culture solution was treated with a glycerol derivative compounds of the type shown in Table 6 below for 1 hour and then was treated with Gemcitabine (2 μg/ml) of a cell stimulator, and subsequent further incubation was conducted for 24 hours. Thereafter 1.5 ml of the culture supernatant was collected for each well and centrifuged (at 3000 rpm, 5 minutes) to recover the supernatant. The CXCL8 (IL-8) level in the recovered supernatant was measured according to the manual provided by the human IL-8 ELISA set (BD Biosciences). The day before ELISA was carried out, the IL-8 capture antibody was diluted in phosphate buffered saline, coated on a microwell, and then stored at 4° C. overnight. Each well was washed three times with a buffer solution and then blocked with 2% Bovine Serum Albumin (BSA) for 1 hour at room temperature. After washing with washing buffer solution three times, 100 μl of sample was dispensed into each well and left at room temperature for 2 hours. Detection antibody which was washed 3 times with washing buffer and diluted was dispensed into each well and allowed to react at room temperature for 1 hour and left at room temperature for 1 hour. Thereafter, the secondary HRP conjugated antibody was reacted at room temperature for 30 minutes, washed three times with a washing buffer, and treated with 50 μl of stop solution for each well, and then the optical density was measured at 450 nm with an ELISA microplate leader.

HL-60 cells = assay: Migration of HL-60 cell line toward THP-1 culture supernatant (transmigration assay); type: cell-based, human; conditions: supernatant of THP-1 cells treated with sample 100 μg/ml 1 h, then Gemcitabine 2 μg/ml 24 h
Description: In RPMI (Hyclone, Thermo Scientific) medium to which 10% Fetal Bovine Serum was added, THP-1 cells, a human macrophage family, were subcultured at a concentration of 1×10^5 cells/ml, and culture was conducted in a 5% CO2 humidified incubator at 37° C. In order to prepare the THP-1 cell culture solution to be treated in the lower well during the transmigration assay, first, the cultured THP-1 cells were inoculated into a 12 well plate by 1×10^6 cells/ml and stabilized for 30 minutes. Then, the culture solution was treated with a glycerol derivative compounds of the type shown in Table 7 below for 1 hour and then was treated with Gemcitabine (2 μg/ml) of a cell stimulator, and subsequent further incubation was conducted for 24 hours. Thereafter 1.5 ml of the culture supernatant was collected for each well and centrifuged (at 3000 rpm, 5 minutes) to recover the supernatant. The CXCL8 (IL-8) level in the recovered supernatant was measured according to the manual provided by Cultrex 96 well Laminin Cell Invasion assay. The day before Transmigration assay was carried out, a 1× Lamin I solution was treated in the upper Invasion Chamber and coated. Thereafter, in RPMI (Hyclone, Thermo Scientific) medium to which 10% Fetal Bovine Serum was added, the cultured HL-60 cells were despensed of 5×10^4 cells/chamber, and 150 μl of the THP-1 culture supernatant prepared in advance was added to the lower chamber. Thereafter the upper chamber was removed, and the cells were attached to the bottom of the lower chamber by a centrifuge, and then the supernatant was removed. Cell dissociation/Calcein-AM solution was added and reacted for 1 hour. Then, the value obtained using a fluorescence spectroscopy was calculated by converting the number of cells.

STAT6 = assay: IL-4-induced STAT6 activity, pGL4-STAT6 luciferase reporter in A549 cells; type: cell-based; conditions: sample 100 μg/ml 1 h, then IL-4 (2 ng/ml) 20 h, Table 9
Description: In DMEM (Dulbecco Modified Eagle Medium, Hyclone, Thermo Scientific) medium to which 10% Fetal Bovine Serum was added, A549 cells were subcultured at a concentration of 1×10^5 cells/ml, and culture was conducted in a 5% CO2 humidified incubator at 37° C. The cultured A549 cells were inoculated into a 48 well plate by 1×10^5 cells/ml and stabilized for 18 hours. Thereafter, pGL4-STAT6 reporter vector containing a STAT6 binding promoter portion was mixed with Attractene to induce complex formation at room temperature for 15 minutes. This complex was treated with the cells and then further incubated for 24 hours. Thereafter, the culture solution was treated with a glycerol derivative compounds of the type shown in Table 9 and 10 below for 1 hour, and then IL-4 (2 ng/ml or 10 ng/ml) was further incubated for 20 hours for STAT6 activity. Thereafter, the culture supernatant was removed for each well, and the remaining cells were lysed with a cell lysis buffer, and then cell lysate was recovered. 90 μl of luciferase reagent was mixed with 10 μl of the recovered cell lysate, and the degree of fluorescence was confirmed using a luminometer. The results are shown in Table 9, Table 10, FIG. 9 and FIG. 10 below.

IL-4 = assay: PKC activator-induced IL-4 secretion reduction in EL-4 cells (ELISA); type: cell-based, mouse; conditions: sample 100 μg/ml 2 h, then PKC activator 18 h, Table 11
Description: In DMEM (Dulbecco Modified Eagle Medium, Hyclone, Thermo Scientific) medium to which 10% Fetal Bovine Serum was added, EL-4 cells, a mouse lymphoma family, were subcultured at a concentration of 1×10^5 cells/ml, and culture was conducted in a 5% CO2 humidified incubator at 37° C. The cultured EL-4 cells were inoculated into a 48 well plate by 5×10^4 cells/ml and stabilized for 30 hours. Then, the culture solution was treated with a glycerol derivative compounds of the type shown in Table 11 and 12 below for 2 hours. Thereafter, it were treated with 0.5 μg/ml of PKC activator (p10, some kind of PMA) of a cell stimulator, and subsequent further incubation were conducted for 18 hours. Thereafter 0.5 ml of the culture supernatant was collected for each well and centrifuged (at 3000 rpm, 5 minutes) to recover the supernatant. The IL-4 level in the recovered supernatant was measured according to the manual provided by the Mouse IL-4 ELISA set (BD Biosciences). The day before ELISA was carried out, the IL-4 capture antibody was diluted in phosphate buffered saline, coated on a microwell, and then stored at 4° C. overnight. Each well was washed three times with a buffer solution and then blocked with 2% Bovine Serum Albumin (BSA) for 1 hour at room temperature. After washing with buffer solution three times, 100 μl of sample was dispensed into each well and left at room temperature for 2 hours. Detection antibody which was washed 3 times with washing buffer solution and diluted was dispensed into each well and allowed to react at room temperature for 1 hour and left at room temperature for 1 hour. Thereafter, the secondary HRP conjugated antibody was reacted at room temperature for 30 minutes, washed three times with buffer solution, and treated with 50 μl of stop solution for each well, and then the optical density was measured at 450 nm with an ELISA microplate leader. The results of the measured expression reduction rate ([…]) were shown in Table 11, Table 12, FIG. 11 and FIG. 12 below.

[1] = sample 100 μg/ml 1 h, then IL-6 5 ng/ml 24 h

Molecule | increase of STAT3 activity compared to the negative control group (STAT3; HEK-Blue IL-6 cells treated with IL-6) | STAT3 activity_SEAP expression(%) (average ± deviation) (STAT3; IL-6 5 ng/ml alone) | IL-6 concentration (average ± deviation) (IL-6) | decrease of STAT3 activity compared to the IL-6 cytokine-treated group (STAT3) | STAT3 activity_SEAP expression(%) (average ± deviation) (STAT3; [1]) | CXCL8 [IL-8] concentration (average ± deviation) (CXCL8 (IL-8)) | Number of HL-60 cells migrated through Transwell (HL-60 cells) | STAT6 activity_Luciferase activity (average ± deviation) (STAT6) | reduction of CXCL8 (IL-8) expression/secretion (CXCL8 (IL-8); Gemcitabine-treated, 100 μg/ml) | IL-4 concentration (average ± deviation) (IL-4)
IL-6: IL-6 cytokine used to induce STAT3 activity [reference compound] | about 2.3 times | 228.8 ± 17.0% | – | – | – | – | – | – | – | –
CCCCC/C=C\C/C=C\CCCCCCCC(=O)OC(COC(=O)CCC)COC(=O)CCCCCCCCCCCCCCC (stereo not shown) [EC_A17] | – | – | 0.154 ± 0.001 µg/mL | about 25% | 185.4 ± 19.3% | 110 ± 0.2 pg/µL | 30692.8 Cell Number | 476.2 ±113.4 | – | –
CCCCC/C=C\C/C=C\CCCCCCCC(=O)OC(COCC)COC(=O)CCCCCCCCCCCCCCC (stereo not shown) [EC_A14] | – | – | 0.277 ± 0.002 µg/mL | – | 185.0 ± 30.0% | – | – | 539.2 ± 40.3 | – | –
CCCCC/C=C\C/C=C\CCCCCCCC(=O)OC(COC(=O)CCCCCCCCCCCCCCC)COC(=O)c1ccccc1 (stereo not shown) [EC_A16] | – | – | 0.238 ± 0.008 µg/mL | about 25% | 171.1 ± 17.5% | 135.1 ± 2.3 pg/µL | 26348.9 Cell Number | 964.5 ± 170.3 | – | –
CCCCC/C=C\C/C=C\CCCCCCCC(=O)OC(COCCC)COC(=O)CCCCCCCCCCCCCCC (stereo not shown) [EC_A15] | – | – | 0.125 ± 0.003 µg/mL | – | 232.0 ± 50.4% | 73.8 ± 0.0 pg/µL | 28884.8 Cell Number | 707.5 ± 51.3 | about 20% | –
CCCCC/C=C\C/C=C\CCCCCCCC(=O)OC(COC(=O)CCCCCCCCCCCCCCC)COC(=O)C(C)(C)C (stereo not shown) [EC_A22] | – | – | – | about 25% | 169.5 ± 10.5% | – | 1181.1 Cell Number | 645.5 ± 111.4 | – | –
CCCCC/C=C\C/C=C\CCCCCCCC(=O)OC(COC(=O)CN)COC(=O)CCCCCCCCCCCCCCC (stereo not shown) [EC_A57] | – | – | 0.120 ± 0.002 µg/mL | – | 243.0 ± 29.5% | – | – | – | – | 745.6 ± 8.35 pg/µL
CCCCC/C=C\C/C=C\CCCCCCCC(=O)OC(COC(=O)CCCCCCCCCCCCCCC)COC(=O)C(C)CC (stereo not shown) [EC_A20] | – | – | 0.055 ± 0.001 µg/mL | – | 196.7 ± 35.1% | – | – | 609.5 ± 197.0 | – | 194.2 ± 47.5 pg/µL
